The structures appear in SMILES notation.

The subject of assay [1] is CFBE. The assay is described as follows: Cellular model: IL-6 content (ELISA) in lung epithelial cells treated with PAO1 supernatant. The format is cell-based, human. The settings on record: PAO1 supernatant pre-incubated with compound 1h at 37°C, 6h incubation. The source says: (§1) These degradations are beneficial for P. aeruginosa pathogenesis by inhibiting antimicrobial peptide while impairing lung function of the host by promoting lung damage and inhibiting epithelial cell repair. In mice, intranasally instillated LasB induced significant inflammation, injury and death. […] Our compounds are therefore been tested in cellular models to define inhibitory effect of our series on LasB deleterious effect on human lung epithelial cell models (NCI-H292 and CFBE). Supernatants from PAO1 wild type and lasB mutant (PAO1ΔlasB) are pre-incubated with Example 1 at 10 times the final concentrations for 1h at 37°C. Then, supernatants are added to cell lines. After 6h incubation, cell culture supernatants are recovered, IL-6 and Trappin-2 contents are analysed by ELISA method. A Student t-Test is performed to assess the statistical significance between conditions (p < 0.05, *). NCI-H292 and CFBE cells express respectively Trappin-2 and IL-6. Whether treatment with culture supernatant from PAO1ΔlasB induces an overexpression of both immune factors, the treatment with PAO1 supernatant lead to strong reduction of IL-6 and Trappin-2 detected. LasB, hydrolyzing IL-6 and Trappin-2, hijacks the immune response against PA. […] By restoring immune response and secretion of IL-6 and Trappin-2, Example 1 and related LasB inhibitors may restore eradication of PA by the immune system.

Assay [2] deals with T1, LasB (Pseudomonas aeruginosa, UniProt P14756).
T1 construct: uses as source of enzyme dialysed supernatant from P. aeruginosa PAO1; endogenous in cells; host or cells: P. aeruginosa PAO1 culture supernatant, filtered and dialysed
T1 sequence (P14756 198-498): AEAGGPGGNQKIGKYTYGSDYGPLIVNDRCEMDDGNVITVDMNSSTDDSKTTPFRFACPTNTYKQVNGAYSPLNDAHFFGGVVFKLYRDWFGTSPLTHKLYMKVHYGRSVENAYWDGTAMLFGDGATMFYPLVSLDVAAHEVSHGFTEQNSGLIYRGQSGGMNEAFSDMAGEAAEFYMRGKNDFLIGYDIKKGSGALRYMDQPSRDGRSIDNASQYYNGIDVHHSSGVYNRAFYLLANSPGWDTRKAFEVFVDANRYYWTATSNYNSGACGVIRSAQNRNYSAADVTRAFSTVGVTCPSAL
Put plainly: Elastin assay to determine % inhibition (Elastin Congo-Red, dialysed culture supernatant). In kind it is biochemical, P. aeruginosa PAO1. The settings on record: read-out: Elastin hydrolysis % inhibition @ 50 / 25 µM inhibitor concentration. The method, boiled down:
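Enzyme source was dialysed PAO1 culture supernatant (50 mM Tris-HCl pH 7.4, 2.5 mM CaCl2), mixed with Elastin Congo-Red and 0.01% Triton X-100. Compound was routinely 50 to 1.56 µM, incubated overnight at 37 °C with shaking. Dye release at OD495 gave % inhibition relative to DMSO and no-enzyme controls.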

The test system of assay [3] is NCI-H292. Put plainly: Cellular model: Trappin-2 content (ELISA) in lung epithelial cells treated with PAO1 supernatant. In kind it is cell-based, human. The settings on record: PAO1 supernatant pre-incubated with compound 1h at 37°C, 6h incubation.
From the text: as §1
For orientation: ELISA stands for enzyme-linked immunosorbent assay.

Assay [4] deals with T2, purified LasB protein from P. aeruginosa (Pseudomonas aeruginosa, UniProt P14756).
T2 construct: purchased Merck or Charles River Laboratories
T2 sequence (P14756 198-498): as above
The assay is described as follows: Fluorometric assay to determine Ki (Abz-Ala-Gly-Leu-Ala-p-Nitro-Benzyl-Amide substrate). In kind it is biochemical. In a few lines:
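Purified P. aeruginosa LasB (10–140 ng/ml) with 250 µM Abz-Ala-Gly-Leu-Ala-p-nitrobenzylamide in 50 mM Tris-HCl pH 7.4, 2.5 mM CaCl2, 0.01% Triton X100, 37 °C; hydrolysis fluorescence (Ex 340/Em 415 nm) followed over 30 min, inhibitor 0.0016–200 µM. Ki = IC50/(1+[S]/Km), Km 214 µM.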

Broadly, the Ki is a dissociation constant, usually derived from enzyme kinetics or from competition with a known ligand. Higher therefore signals a looser hold on the target. Turning to `O=C(O)CC1(C(=O)NCc2nc(-c3ccccc3)cs2)Cc2ccccc2C1` [Example 1, 2-[2-[(4-phenylthiazol-2-yl)methylcarbamoyl]indan-2-yl]acetic acid], in assay [1], the “level of IL-6” value was “restored in a dose response maneer level of both Trappin-2 and IL-6 similar to the control”. In assay [2], the inhibition at 25 µM was greater than 75%. For the same molecule, the “level of Trappin-2” value in assay [3] is “restored in a dose response maneer level of both Trappin-2 and IL-6 similar to the control”. Further, in assay [4], the Ki fell in the range of 50 to 200 nM.

For `CN1CCN(S(=O)(=O)c2cc(-c3csc(CNC(=O)C4(CC(=O)O)Cc5ccccc5C4)n3)ccc2OCCCN2CCOCC2)CC1` [Example 133, 2-[2-[[4-[3-(4-methylpiperazin-1-yl)sulfonyl-4-(3-morpholinopropoxy)phenyl]thiazol-2-yl]methylcarbamoyl]indan-2-yl]acetic acid], the inhibition at 25 µM in assay [2] lay in the range of 60 to 75%. In addition, in assay [4], the Ki is less than 50 nM.

Turning to `CC(=O)N1CCN(CCn2cc(-c3csc(CNC(=O)C4(CC(=O)O)Cc5ccccc5C4)n3)cn2)CC1` [Example 119, 2-[2-[[4-[1-[2-(4-acetylpiperazin-1-yl)ethyl]pyrazol-4-yl]thiazol-2-yl]methylcarbamoyl]indan-2-yl]acetic acid], in assay [2], the inhibition at 25 µM is 60 to 75%. The same molecule gave a Ki in assay [4] of 50 to 200 nM.

As for `CN1CCN(CCCn2cc(-c3csc(CNC(=O)C4(CC(=O)O)Cc5ccccc5C4)n3)cn2)CC1=O` [Example 116, 2-[2-[[4-[1-[3-(4-methyl-3-oxo-piperazin-1-yl)propyl]pyrazol-4-yl]thiazol-2-yl]methylcarbamoyl]indan-2-yl]acetic acid], the inhibition at 25 µM in assay [2] was 60 to 75%. This molecule returned a Ki in assay [4] of 50 to 200 nM.

Take `Cc1cc(-c2csc(CNC(=O)C3(CC(=O)O)Cc4ccccc4C3)n2)n[nH]1` [Example 98, 2-[2-[[4-(5-methyl-1H-pyrazol-3-yl)thiazol-2-yl]methylcarbamoyl]indan-2-yl] acetic acid]: the inhibition at 25 µM in assay [2] fell in the range of 60 to 75%. Further, in assay [4], the Ki is 200 to 10000 nM.

With `CN1CCN(S(=O)(=O)c2cccc(-c3csc(CNC(=O)C4(CC(=O)O)Cc5ccccc5C4)n3)c2)CC1` [Example 127, 2-[2-[[4-[3-(4-methylpiperazin-1-yl)sulfonylphenyl]thiazol-2-yl]methylcarbamoyl]indan-2-yl]acetic acid], the inhibition at 25 µM in assay [2] is greater than 75%. Besides, in assay [4], the Ki was in the range of 50 to 200 nM.

For `CN1CCN(C(=O)N2CCN(CCCn3cc(-c4csc(CNC(=O)C5(CC(=O)O)Cc6ccccc6C5)n4)cn3)CC2)CC1` [Example 112, 2-[2-[[4-[1-[3-[4-(4-methylpiperazine-1-carbonyl)piperazin-1-yl]propyl]pyrazol-4-yl]thiazol-2-yl]methylcarbamoyl]indan-2-yl]acetic acid], the inhibition at 25 µM in assay [2] was 60 to 75%. Moreover, the Ki in assay [4] lay in the range of 50 to 200 nM.

For the molecule `COc1cc(N2CCN(C)CC2)ccc1-c1csc(CNC(=O)C2(CC(=O)O)Cc3ccccc3C2)n1` [Example 31, 2-[2-[[4-[2-methoxy-4-(4-methylpiperazin-1-yl)phenyl]thiazol-2-yl]methylcarbamoyl]indan-2-yl]acetic acid], in assay [2], the inhibition at 25 µM lay in the range of 60 to 75%. Moreover, the Ki in assay [4] fell in the range of 50 to 200 nM.

`O=C(O)CC1(C(=O)NCc2nc(-c3ccc(OCCN4CCOCC4)cc3)cs2)Cc2ccccc2C1` [Example 49, 2-[2-[[4-[4-(2-morpholinoethoxy)phenyl]thiazol-2-yl]methylcarbamoyl]indan-2-yl]acetic acid]: the inhibition at 25 µM in assay [2] lay in the range of 60 to 75%. In addition, the Ki in assay [4] lay within 50 to 200 nM.

As for `O=C(O)CC1(C(=O)NCc2nc(-c3ccccc3CO)cs2)Cc2ccccc2C1` [Example 148, 2-[2-[[4-[2-(hydroxymethyl)phenyl]thiazol-2-yl]methylcarbamoyl]indan-2-yl]acetic acid], the inhibition at 25 µM in assay [2] lay in the range of 60 to 75%. The same molecule had a Ki in assay [4] of 50 to 200 nM.

As to `Cn1ccc(-c2csc(CNC(=O)C3(CC(=O)O)Cc4ccccc4C3)n2)n1` [Example 90, 2-[2-[[4-(1-methylpyrazol-3-yl)thiazol-2-yl]methylcarbamoyl]indan-2-yl]acetic acid], the inhibition at 25 µM in assay [2] fell in the range of 60 to 75%. Also, the Ki in assay [4] was in the range of 200 to 10000 nM.

On to `COc1cc(OCCc2n(C)cc[n+]2C)ccc1-c1csc(CNC(=O)C2(CC(=O)[O-])Cc3cc(F)c(F)cc3C2)n1` [Example 86, 2-[2-[[4-[4-[2-(1,3-dimethylimidazol-1-ium-2-yl)ethoxy]-2-methoxy-phenyl]thiazol-2-yl]methylcarbamoyl]-5,6-difluoro-indan-2-yl]acetate], for which the inhibition at 25 µM in assay [2] was in the range of 60 to 75%. For the same molecule, in assay [4], the Ki was 50 to 200 nM.
